How the values were obtained:
Format in all cases: binding, human
PDZ-proteins = assay: Estimated PPI affinity, additive association constants of all PDZ sites;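 note: calculated estimate, not directly measured: domain-motif affinities from holdup assays, association constants summed over all PDZ sites, one motif bound at a time, weak interactions ignored, giving a lower limit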
Excerpt: We used the previously generated domain-motif interactome, consisting of the composite affinities (i.e., taken from the most reliable holdup method; see above) to estimate affinities of PPIs. We assumed that a multidomain PDZ-protein can only interact with a single PBM at the same time (Eq. (4)):4 PDZ+PBM⇌(PDZ−PBM)site1,or(PDZ−PBM)site2,or(PDZ−PBM)siten
Using this approximation, as proposed by others before[45], the association constant of a multi-site interaction is the sum of the association constants of all sites (Eq. (5)):5 Ka,additive=[PDZ−PBM]site1+[PDZ−PBM]site2+…+[PDZ−PBM]siten/[PDZ]×[PBM]=∑Ka,site
The contribution of unmeasurable weak interactions was also neglected in the calculations.

HaCat cell extract preys = assay: PBM-AP-MS, PBM peptide baits
Method: (§1) HEK293T and HeLa cells were authenticated and found 100% identity to ATCC cat. CRL-3216 and ATCC cat. CCL-2, respectively. Jurkat and HaCat cell lines were not authenticated (original source: ECACC and Deutsches Krebsforschungszentrum DKFZ, respectively). HeLa cells were grown in DMEM (1 g/L glucose, Gibco) medium completed with 5% FCS and 40 μg/mL gentamicin, diluted every 3rd/4th day 1/10. HaCat cells were grown in DMEM (1 g/L glucose, Gibco) medium completed with 10% FCS and 40 μg/mL gentamicin, diluted every 3rd/4th day 1/4. Jurkat cells were grown in RPMI (Gibco) medium completed with 10% FCS and 40 μg/mL gentamicin, diluted every 3rd/4th day 1/12. All cells were kept at 37 °C and 5% CO2. For proteomics analyses cells were seeded on T-175 flasks. After they reached confluency, adherent cells were washed with PBS once and collected by scraping with ice-cold lysis buffer (Hepes-KOH pH 7.5 50 mM, NaCl 150 mM, Triton X-100 1%, complete EDTA-free protease inhibitor cocktail 1×, EDTA 2 mM, TCEP 5 mM, glycerol 10%). Jurkat cells were collected by 1000 g × centrifugation, washed once with PBS, then collected by 1000 g × 5 min centrifugation again and lysed in ice-cold lysis buffer. Lysates were sonicated 4 × 20 s with 1 s long pulses on ice, then incubated rotating at 4 °C for 30 min. Lysates were centrifuged at 12,000 rpm 4 °C for 20 min and supernatant was kept for further analysis. Concentration determination was carried out by standard Bradford method (Bio-Rad Protein Assay Dye Reagent #5000006) using BSA (MP BIomedicals #160069) as control on a Bio-Rad SmartSpec 3000 spectrophotometer instrument.
(§2) For PBM-AP-MS experiments, 30 μl streptavidin resin was mixed with biotin or peptide at 50–60 μM concentration in 6–6.5 resin volume for 60 min to achieve resin saturation. For PDZ-AP-MS experiments, 30 μl streptavidin resin was mixed with biotinylated MBP or MBP-PDZ at 40-50 μM concentration in >1000× resin volume for 60 min to achieve resin saturation. After saturation, resins were washed a single time (ten resin volume, holdup buffer), and were depleted with biotin (1 mM biotin, 5–10 resin volume, 10 min). Finally, resins were washed two times. 0.5 ml 2 mg/ml cell lysate was added to the dry resin (1 mg total input) and were incubated at 4 °C for 2 h. Then, the beads were washed three times with 10 resin volume buffer containing: 50 mM TRIS pH 8.5, 150 mM NaCl, 1% TritonX-100, 10× complete EDTA-free protease inhibitor cocktail, 2 mM EDTA, 1 mM TCEP. Then, the beads were washed two times with ten resin volume buffer containing: 50 mM TRIS pH 8.5, 150 mM NaCl, 1 mM TCEP. Finally, captured protein was eluted from the resin in two steps and the eluted fractions were pooled. For each elution the beads were incubated for 30 min with three resin volume buffer containing: 20 mM TRIS pH8.5, 100 mM NaCl, 500 μM TCEP, 8 M Urea. Between each step, the beads were separated by mild centrifugation and the supernatant was removed by gentle pipetting.
(§3) The samples were precipitated with TCA 20% overnight at 4 °C and centrifuged at 14,000 rpm for 10 min at 4 °C. The protein pellets were washed twice with 1 mL cold acetone and air dried. The protein extracts were solubilized in urea 8 M, reduced with 5 mM TCEP for 30 min, and alkylated with 10 mM iodoacetamide for 30 min in the dark. Double digestion was performed at 37 °C with 500 ng endoproteinase Lys-C for 4 h, followed by fourfold dilution and an overnight digestion with 500 ng trypsin. Peptide mixtures were then desalted on C18 spin-column and dried on Speed-Vacuum.
(§4) Samples were analyzed using an Ultimate 3000 nano-RSLC (Thermo Scientific, San Jose California) coupled in line with a LTQ-Orbitrap ELITE mass spectrometer via a nano-electrospray ionization source (Thermo Scientific, San Jose California). […]

[1] = tested on: Jurkat cell extract preys; assay: PBM-AP-MS, PBM peptide baits
Method: as §1, §2, §3, §4

HPV18E6
final additive pKd (PDZ-proteins; PDZ-protein AHNAK): 3.5 | final additive pKd (PDZ-proteins; PDZ-protein CASK): 3.5 | final additive pKd (PDZ-proteins; PDZ-protein DLG1): 5.948 | final additive pKd (PDZ-proteins; PDZ-protein InaDl): 3.7336 | final additive pKd (PDZ-proteins; PDZ-protein LAP2): 3.615 | final additive pKd (PDZ-proteins; PDZ-protein LIN7C): 4.171 | final additive pKd (PDZ-proteins; PDZ-protein LNX2): 3.17 | final additive pKd (PDZ-proteins; PDZ-protein MAGI3): 5.558 | final additive pKd (PDZ-proteins; PDZ-protein MPP5): 3.5 | final additive pKd (PDZ-proteins; PDZ-protein MPP6): 3.5 | final additive pKd (PDZ-proteins; PDZ-protein MPP7): 3.5 | final additive pKd (PDZ-proteins; PDZ-protein NHERF2): 3.5 | final additive pKd (PDZ-proteins; PDZ-protein PDLIM2): 3.5 | final additive pKd (PDZ-proteins; PDZ-protein PDLIM5): 3.5 | final additive pKd (PDZ-proteins; PDZ-protein PDLIM7): 3.5 | final additive pKd (PDZ-proteins; PDZ-protein PSMD9): 3.5 | final additive pKd (PDZ-proteins; PDZ-protein SCRIB): 5.064 | final additive pKd (PDZ-proteins; PDZ-protein SNTB1): 5.229 | final additive pKd (PDZ-proteins; PDZ-protein SNTB2): 4.58 | final additive pKd (PDZ-proteins; PDZ-protein SNX27): 4.554 | final additive pKd (PDZ-proteins; PDZ-protein SYNJ2BP): 5.349 | final additive pKd (PDZ-proteins; PDZ-protein TX1B3): 4.665 | Enrichment values compared to biotin controls (HaCat cell extract preys; prey AHNAK2, PBM peptide bait): 0.8 | Enrichment values compared to biotin controls (HaCat cell extract preys; prey AHNAK, PBM peptide bait): 1.4 | Enrichment values compared to biotin controls (HaCat cell extract preys; prey DLG1, PBM peptide bait): 2.3 | Enrichment values compared to biotin controls (HaCat cell extract preys; prey GORASP2, PBM peptide bait): 9.0 | Enrichment values compared to biotin controls (HaCat cell extract preys; prey InaDl, PBM peptide bait): 8.0 | Enrichment values compared to biotin controls (HaCat cell extract preys; prey LAP2, PBM peptide bait): 0.9 | Enrichment values compared to biotin controls (HaCat cell extract preys; prey LIN7C, PBM peptide bait): 215.4 | Enrichment values compared to biotin controls (HaCat cell extract preys; prey MAGI3, PBM peptide bait): 7.4 | Enrichment values compared to biotin controls (HaCat cell extract preys; prey MPP5, PBM peptide bait): 11.3 | Enrichment values compared to biotin controls (HaCat cell extract preys; prey MPP6, PBM peptide bait): 5.0 | Enrichment values compared to biotin controls (HaCat cell extract preys; prey MPP7, PBM peptide bait): 48.3 | Enrichment values compared to biotin controls (HaCat cell extract preys; prey NHERF2, PBM peptide bait): 1.8 | Enrichment values compared to biotin controls (HaCat cell extract preys; prey NHERF, PBM peptide bait): 2.5 | Enrichment values compared to biotin controls (HaCat cell extract preys; prey PDLIM1, PBM peptide bait): 3.2 | Enrichment values compared to biotin controls (HaCat cell extract preys; prey PDLIM2, PBM peptide bait): 0.8 | Enrichment values compared to biotin controls (HaCat cell extract preys; prey PDLIM4, PBM peptide bait): 1.0 | Enrichment values compared to biotin controls (HaCat cell extract preys; prey PDLIM5, PBM peptide bait): 0.7 | Enrichment values compared to biotin controls (HaCat cell extract preys; prey PDLIM7, PBM peptide bait): 0.5 | Enrichment values compared to biotin controls (HaCat cell extract preys; prey PTPN3, PBM peptide bait): 1.7 | Enrichment values compared to biotin controls (HaCat cell extract preys; prey SCRIB, PBM peptide bait): 0.6 | Enrichment values compared to biotin controls (HaCat cell extract preys; prey SNTB2, PBM peptide bait): 15.4 | Enrichment values compared to biotin controls (HaCat cell extract preys; prey SNX27, PBM peptide bait): 0.641 | Enrichment values compared to biotin controls (HaCat cell extract preys; prey SYNJ2BP, PBM peptide bait): 58.4 | Enrichment values compared to biotin controls (HaCat cell extract preys; prey TJP1, PBM peptide bait): 8.8 | Enrichment values compared to biotin controls (HaCat cell extract preys; prey TJP2, PBM peptide bait): 1.8 | Enrichment values compared to biotin controls (HaCat cell extract preys; prey TX1B3, PBM peptide bait): 1.6 | Enrichment values compared to biotin controls ([1]; prey APBA1, PBM peptide bait): 5.1 | Enrichment values compared to biotin controls ([1]; prey DLG4, PBM peptide bait): 3.2 | Enrichment values compared to biotin controls ([1]; prey DVL2, PBM peptide bait): 1.0 | Enrichment values compared to biotin controls ([1]; prey GOPC, PBM peptide bait): 15.5 | Enrichment values compared to biotin controls ([1]; prey InaDl, PBM peptide bait): 0.8 | Enrichment values compared to biotin controls ([1]; prey LAP2, PBM peptide bait): 2.3 | Enrichment values compared to biotin controls ([1]; prey LNX2, PBM peptide bait): 1.0 | Enrichment values compared to biotin controls ([1]; prey MAGI3, PBM peptide bait): 5.4 | Enrichment values compared to biotin controls ([1]; prey MPP1, PBM peptide bait): 0.547 | Enrichment values compared to biotin controls ([1]; prey MPP5, PBM peptide bait): 3.3 | Enrichment values compared to biotin controls ([1]; prey MPP6, PBM peptide bait): 2.5 | Enrichment values compared to biotin controls ([1]; prey MPP7, PBM peptide bait): 4.4 | Enrichment values compared to biotin controls ([1]; prey MYO18A, PBM peptide bait): 0.4 | Enrichment values compared to biotin controls ([1]; prey PDLIM2, PBM peptide bait): 1.5 | Enrichment values compared to biotin controls ([1]; prey PDLIM5, PBM peptide bait): 0.8 | Enrichment values compared to biotin controls ([1]; prey PDLIM7, PBM peptide bait): 1.1 | Enrichment values compared to biotin controls ([1]; prey PDZD11, PBM peptide bait): 1.0 | Enrichment values compared to biotin controls ([1]; prey PSMD9, PBM peptide bait): 0.8 | Enrichment values compared to biotin controls ([1]; prey SIPA1L1, PBM peptide bait): 1.2 | Enrichment values compared to biotin controls ([1]; prey SIPA1L2, PBM peptide bait): 1.1 | Enrichment values compared to biotin controls ([1]; prey SNTB1, PBM peptide bait): 6.6 | Enrichment values compared to biotin controls ([1]; prey SNTB2, PBM peptide bait): 1.1 | Enrichment values compared to biotin controls ([1]; prey SNX27, PBM peptide bait): 16.6 | Enrichment values compared to biotin controls ([1]; prey SYNJ2BP, PBM peptide bait): 14.2 | Enrichment values compared to biotin controls ([1]; prey TX1B3, PBM peptide bait): 7.1

Reference: publication PMC9482650, “Quantitative fragmentomics allow affinity mapping of interactomes” (Nature Communications, 2022)
